Values joined by “and” are separate entries in the source; they are usually repeats but may differ in a detail not shown here. Identical values can stand only once. ± gives the uncertainty stated by the source.
Test: xn = mol fraction of the nth substance listed

N#C[S-].[Na+] + O
viscosity [mPa·s], 101.3 kPa
Details | 293.15 K | 298.15 K | 303.15 K | 308.15 K | 313.15 K | 318.15 K | 323.15 K
x1 = 0.000641 | 1.046 ± 0.073 | 0.938 ± 0.066 | 0.839 ± 0.059 | 0.759 ± 0.053 | 0.689 ± 0.048 | 0.629 ± 0.044 | 0.577 ± 0.041
x1 = 0.0118 | 1.037 ± 0.073 | 0.943 ± 0.066 | 0.835 ± 0.059 | 0.771 ± 0.054 | 0.699 ± 0.049 | 0.638 ± 0.045 | 0.589 ± 0.041
x1 = 0.01737 | 1.104 ± 0.078 | 0.985 ± 0.069 | 0.887 ± 0.062 | 0.805 ± 0.057 | 0.732 ± 0.051 | 0.672 ± 0.047 | 0.618 ± 0.043
x1 = 0.03707 | 1.261 ± 0.089 | 1.128 ± 0.079 | 1.016 ± 0.071 | 0.92 ± 0.065 | 0.834 ± 0.059 | 0.766 ± 0.054 | 0.706 ± 0.05
x1 = 0.05053 | 1.367 ± 0.096 | 1.221 ± 0.086 | 1.124 ± 0.079 | 1.015 ± 0.071 | 0.919 ± 0.065 | 0.834 ± 0.059 | 0.776 ± 0.055
x1 = 0.07571 | 1.549 ± 0.11 | 1.387 ± 0.097 | 1.25 ± 0.088 | 1.132 ± 0.08 | 1.03 ± 0.072 | 0.945 ± 0.066 | 0.87 ± 0.061
x1 = 0.09639 | 1.81 ± 0.13 | 1.613 ± 0.11 | 1.442 ± 0.1 | 1.308 ± 0.092 | 1.19 ± 0.084 | 1.091 ± 0.077 | 1.003 ± 0.07
x1 = 0.1127 | 2.193 ± 0.15 | 1.939 ± 0.14 | 1.732 ± 0.12 | 1.56 ± 0.11 | 1.408 ± 0.099 | 1.295 ± 0.091 | 1.18 ± 0.083
x1 = 0.1223 | 2.333 ± 0.16 | 2.061 ± 0.14 | 1.828 ± 0.13 | 1.653 ± 0.12 | 1.493 ± 0.11 | 1.356 ± 0.095 | 1.248 ± 0.088
x1 = 0.1239 | 2.378 ± 0.17 | 2.099 ± 0.15 | 1.873 ± 0.13 | 1.679 ± 0.12 | 1.52 ± 0.11 | 1.384 ± 0.097 | 1.27 ± 0.089
x1 = 0.1334 | 2.641 ± 0.18 | 2.321 ± 0.16 | 2.06 ± 0.14 | 1.842 ± 0.13 | 1.668 ± 0.12 | 1.505 ± 0.11 | 1.374 ± 0.097
x1 = 0.1416 | 2.851 ± 0.2 | 2.501 ± 0.18 | 2.214 ± 0.15 | 1.977 ± 0.14 | 1.779 ± 0.12 | 1.609 ± 0.11 | 1.468 ± 0.1
x1 = 0.1532 | 3.196 ± 0.22 | 2.792 ± 0.2 | 2.461 ± 0.17 | 2.191 ± 0.15 | 1.963 ± 0.14 | 1.777 ± 0.12 | 1.619 ± 0.11
x1 = 0.1683 | 3.749 ± 0.26 | 3.258 ± 0.23 | 2.858 ± 0.2 | 2.527 ± 0.18 | 2.259 ± 0.16 | 2.049 ± 0.14 | 1.837 ± 0.13
x1 = 0.1834 | 4.424 ± 0.31 | 3.802 ± 0.27 | – | – | – | – | –

COCCO + O
viscosity
Details | 101 kPa | 101.33 kPa
298.15 K, x1 = 0.01 | 0.9988 ± 0.021 mPa·s | –
298.15 K, x1 = 0.025 | 1.169 ± 0.025 mPa·s | –
298.15 K, x1 = 0.05 | 1.464 ± 0.031 mPa·s | –
298.15 K, x1 = 0.056 | 1.516 ± 0.038 mPa·s | –
298.15 K, x1 = 0.075 | 1.755 ± 0.037 mPa·s | –
298.15 K, x1 = 0.0834 | – | 1.894 ± 0.011 mPa·s
298.15 K, x1 = 0.1 | 2.023 ± 0.043 mPa·s | –
298.15 K, x1 = 0.136 | 2.365 ± 0.055 mPa·s | –
298.15 K, x1 = 0.1366 | – | 2.365 ± 0.014 mPa·s
298.15 K, x1 = 0.15 | 2.475 ± 0.052 mPa·s | 2.442 ± 0.014 mPa·s
298.15 K, x1 = 0.2 | 2.766 ± 0.059 mPa·s | –
298.15 K, x1 = 0.2131 | – | 2.768 ± 0.016 mPa·s
298.15 K, x1 = 0.25 | 2.908 ± 0.062 mPa·s and 2.871 ± 0.18 mPa·s and 2.871 ± 0.022 mPa·s | –
298.15 K, x1 = 0.2601 | – | 2.876 ± 0.016 mPa·s
298.15 K, x1 = 0.262 | 2.885 ± 0.061 mPa·s | –
298.15 K, x1 = 0.3 | 2.942 ± 0.063 mPa·s | –
298.15 K, x1 = 0.3005 | – | 2.904 ± 0.017 mPa·s
298.15 K, x1 = 0.3558 | – | 2.886 ± 0.016 mPa·s
298.15 K, x1 = 0.4 | 2.833 ± 0.06 mPa·s | –
298.15 K, x1 = 0.4352 | – | 2.751 ± 0.016 mPa·s
298.15 K, x1 = 0.48 | 2.582 ± 0.16 mPa·s and 2.582 ± 0.019 mPa·s | –
298.15 K, x1 = 0.486 | 2.575 ± 0.044 mPa·s | –
298.15 K, x1 = 0.5 | 2.606 ± 0.055 mPa·s | –
298.15 K, x1 = 0.5001 | – | 2.616 ± 0.015 mPa·s
298.15 K, x1 = 0.5219 | – | 2.571 ± 0.015 mPa·s
298.15 K, x1 = 0.6 | 2.35 ± 0.05 mPa·s | –
298.15 K, x1 = 0.6161 | – | 2.367 ± 0.014 mPa·s
298.15 K, x1 = 0.6806 | – | 2.232 ± 0.013 mPa·s
298.15 K, x1 = 0.7 | 2.102 ± 0.044 mPa·s | –
298.15 K, x1 = 0.72 | 2.115 ± 0.13 mPa·s and 2.115 ± 0.017 mPa·s | –
298.15 K, x1 = 0.7514 | – | 2.076 ± 0.013 mPa·s
298.15 K, x1 = 0.8 | 1.874 ± 0.04 mPa·s | –
298.15 K, x1 = 0.8181 | – | 1.93 ± 0.012 mPa·s
298.15 K, x1 = 0.85 | 1.772 ± 0.037 mPa·s | –
298.15 K, x1 = 0.8844 | – | 1.786 ± 0.011 mPa·s
298.15 K, x1 = 0.9 | 1.681 ± 0.036 mPa·s | –
298.15 K, x1 = 0.95 | 1.606 ± 0.034 mPa·s | –
298.15 K, x2 = 0.1049 | – | 1.671 ± 0.02 mPa·s
298.15 K, x2 = 0.2062 | – | 1.86 ± 0.022 mPa·s
298.15 K, x2 = 0.3055 | – | 2.064 ± 0.024 mPa·s
298.15 K, x2 = 0.3977 | – | 2.288 ± 0.027 mPa·s
298.15 K, x2 = 0.4976 | – | 2.538 ± 0.029 mPa·s
298.15 K, x2 = 0.6002 | – | 2.755 ± 0.031 mPa·s
298.15 K, x2 = 0.6964 | – | 2.866 ± 0.033 mPa·s
298.15 K, x2 = 0.8004 | – | 2.68 ± 0.03 mPa·s
298.15 K, x2 = 0.9005 | – | 1.989 ± 0.023 mPa·s
308.15 K, x1 = 0.0461 | – | 1.143 ± 0.009 mPa·s
308.15 K, x1 = 0.0623 | – | 1.242 ± 0.008 mPa·s
308.15 K, x1 = 0.0881 | – | 1.52 ± 0.011 mPa·s
308.15 K, x1 = 0.1239 | – | 1.829 ± 0.013 mPa·s
308.15 K, x1 = 0.16 | – | 1.803 ± 0.011 mPa·s
308.15 K, x1 = 0.1871 | – | 2.124 ± 0.016 mPa·s
308.15 K, x1 = 0.2131 | – | 2.067 ± 0.012 mPa·s
308.15 K, x1 = 0.2442 | – | 2.284 ± 0.017 mPa·s
308.15 K, x1 = 0.25 | 2.142 ± 0.13 mPa·s and 2.142 ± 0.019 mPa·s | –
308.15 K, x1 = 0.2601 | – | 2.149 ± 0.012 mPa·s
308.15 K, x1 = 0.2938 | – | 2.341 ± 0.018 mPa·s
308.15 K, x1 = 0.3005 | – | 2.164 ± 0.013 mPa·s
308.15 K, x1 = 0.326 | – | 2.342 ± 0.018 mPa·s
308.15 K, x1 = 0.3558 | – | 2.15 ± 0.013 mPa·s
308.15 K, x1 = 0.3709 | – | 2.319 ± 0.017 mPa·s
308.15 K, x1 = 0.4014 | – | 2.284 ± 0.017 mPa·s
308.15 K, x1 = 0.4352 | – | 2.077 ± 0.012 mPa·s
308.15 K, x1 = 0.4504 | – | 2.217 ± 0.017 mPa·s
308.15 K, x1 = 0.5001 | – | 2.001 ± 0.012 mPa·s
308.15 K, x1 = 0.5219 | – | 1.96 ± 0.012 mPa·s
308.15 K, x1 = 0.6161 | – | 1.818 ± 0.011 mPa·s
308.15 K, x1 = 0.6806 | – | 1.726 ± 0.011 mPa·s
308.15 K, x1 = 0.72 | 1.68 ± 0.11 mPa·s and 1.68 ± 0.014 mPa·s | –
308.15 K, x1 = 0.7514 | – | 1.624 ± 0.01 mPa·s
308.15 K, x1 = 0.8844 | – | 1.443 ± 0.009 mPa·s
308.15 K, x2 = 0.1034 | – | 1.452 ± 0.069 mPa·s
308.15 K, x2 = 0.1923 | – | 1.477 ± 0.07 mPa·s
308.15 K, x2 = 0.2978 | – | 1.629 ± 0.077 mPa·s
308.15 K, x2 = 0.3944 | – | 1.768 ± 0.083 mPa·s
308.15 K, x2 = 0.5527 | – | 1.918 ± 0.089 mPa·s
308.15 K, x2 = 0.7415 | – | 2.002 ± 0.093 mPa·s
308.15 K, x2 = 0.8372 | – | 1.768 ± 0.083 mPa·s
308.15 K, x2 = 0.956 | – | 1.085 ± 0.054 mPa·s
313.15 K, x1 = 0.25 | 1.842 ± 0.11 mPa·s and 1.842 ± 0.016 mPa·s | –
313.15 K, x1 = 0.48 | 1.805 ± 0.11 mPa·s and 1.805 ± 0.014 mPa·s | –
313.15 K, x1 = 0.72 | 1.517 ± 0.095 mPa·s and 1.517 ± 0.012 mPa·s | –
318.15 K, x1 = 0.0251 | – | 0.737 ± 0.005 mPa·s
318.15 K, x1 = 0.0623 | – | 0.95 ± 0.006 mPa·s
318.15 K, x1 = 0.15 | – | 1.325 ± 0.008 mPa·s
318.15 K, x1 = 0.2131 | – | 1.505 ± 0.009 mPa·s
318.15 K, x1 = 0.25 | 1.588 ± 0.096 mPa·s and 1.588 ± 0.013 mPa·s | –
318.15 K, x1 = 0.2601 | – | 1.585 ± 0.009 mPa·s
318.15 K, x1 = 0.3005 | – | 1.626 ± 0.01 mPa·s
318.15 K, x1 = 0.3558 | – | 1.655 ± 0.01 mPa·s
318.15 K, x1 = 0.4352 | – | 1.653 ± 0.01 mPa·s
318.15 K, x1 = 0.48 | 1.627 ± 0.099 mPa·s and 1.627 ± 0.012 mPa·s | –
318.15 K, x1 = 0.5001 | – | 1.615 ± 0.01 mPa·s
318.15 K, x1 = 0.5219 | – | 1.602 ± 0.01 mPa·s
318.15 K, x1 = 0.6161 | – | 1.513 ± 0.009 mPa·s
318.15 K, x1 = 0.6806 | – | 1.444 ± 0.009 mPa·s
318.15 K, x1 = 0.72 | 1.389 ± 0.087 mPa·s and 1.389 ± 0.011 mPa·s | –
318.15 K, x1 = 0.7514 | – | 1.36 ± 0.009 mPa·s
318.15 K, x1 = 0.8181 | – | 1.281 ± 0.008 mPa·s
318.15 K, x1 = 0.8844 | – | 1.191 ± 0.008 mPa·s
323.15 K, x1 = 0.48 | 1.493 ± 0.091 mPa·s and 1.493 ± 0.014 mPa·s | –
323.15 K, x1 = 0.72 | 1.294 ± 0.081 mPa·s and 1.294 ± 0.0099 mPa·s | –
